Columns and labels:
Test in all cases: relative viability (nuclei count vs DMSO), 5 days (fraction); higher = more cells survive
201T = system: 201T
Method in brief: (§1)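 Values are medians from duplicate plates. Each reflects relative viability, defined as the nuclei count of treated wells over that of vehicle wells. Lung cancer cell lines in 1536-well plates were pin-tool dosed one day after seeding with one drug alone or with a fixed anchor-drug dose plus five library-drug doses (not always all listed) in √10 steps, then fixed, stained and imaged at 4× after 5 days.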

A-427 = system: A-427
Method in brief: as §1

ABC-1 = system: ABC-1
Method in brief: as §1

BEN = system: BEN
Method in brief: as §1

CAL-12T = system: CAL-12T
Method in brief: as §1

H3255 = system: H3255
Method in brief: as §1

LC-2-ad = system: LC-2-ad
Method in brief: as §1

LCLC-97TM1 = system: LCLC-97TM1
Method in brief: as §1

NCI-H1650 = system: NCI-H1650
Method in brief: as §1

NCI-H1651 = system: NCI-H1651
Method in brief: as §1

NCI-H1792 = system: NCI-H1792
Method in brief: as §1

NCI-H1915 = system: NCI-H1915
Method in brief: as §1

NCI-H1944 = system: NCI-H1944
Method in brief: as §1

NCI-H2023 = system: NCI-H2023
Method in brief: as §1

NCI-H2087 = system: NCI-H2087
Method in brief: as §1

NCI-H441 = system: NCI-H441
Method in brief: as §1

NCI-H460 = system: NCI-H460
Method in brief: as §1

NCI-H520 = system: NCI-H520
Method in brief: as §1

NCI-H596 = system: NCI-H596
Method in brief: as §1

NCI-H650 = system: NCI-H650
Method in brief: as §1

NCI-H661 = system: NCI-H661
Method in brief: as §1

NCI-H727 = system: NCI-H727
Method in brief: as §1

PC-3 [JPC-3] = system: PC-3 [JPC-3]
Method in brief: as §1

`O=C(O)c1ccc(-c2c[nH]c3ncc(-c4ccccc4)cc23)cc1C1CCCC1` + CS(=O)(=O)N1CCN(Cc2cc3nc(-c4cccc5[nH]ncc45)nc(N4CCOCC4)c3s2)CC1 [Pictilisib] (partner 1 µM) showed a relative viability (201T; first compound 0.04 µM) of 0.695, a relative viability (201T; first compound 0.1265 µM) of 0.619 and a relative viability (201T; first compound 0.4 µM) of 0.608. The relative viability (201T; first compound 1.265 µM) was 0.656, the relative viability (A-427; first compound 0.04 µM) was 0.836 and the relative viability (A-427; first compound 0.1265 µM) was 0.738. The relative viability (A-427; first compound 0.4 µM) was 0.723, the relative viability (A-427; first compound 1.265 µM) was 0.738 and the relative viability (ABC-1; first compound 0.04 µM) was 0.673. The relative viability (ABC-1; first compound 0.1265 µM) was 0.596, the relative viability (ABC-1; first compound 0.4 µM) was 0.689 and the relative viability (ABC-1; first compound 1.265 µM) was 0.757. The relative viability (BEN; first compound 0.04 µM) was 0.546, the relative viability (BEN; first compound 0.1265 µM) was 0.609 and the relative viability (BEN; first compound 0.4 µM) was 0.584. The relative viability (BEN; first compound 1.265 µM) was 0.555, the relative viability (CAL-12T; first compound 0.04 µM) was 0.478 and the relative viability (CAL-12T; first compound 0.1265 µM) was 0.696. For the same compound, the relative viability (CAL-12T; first compound 0.4 µM) was 0.494, the relative viability (CAL-12T; first compound 1.265 µM) was 0.448 and the relative viability (H3255; first compound 0.04 µM) was 0.502. The relative viability (H3255; first compound 0.1265 µM) was 0.529, the relative viability (H3255; first compound 0.4 µM) was 0.441 and the relative viability (H3255; first compound 1.265 µM) was 0.462. For the same compound, the relative viability (LC-2-ad; first compound 0.04 µM) was 0.48, the relative viability (LC-2-ad; first compound 0.1265 µM) was 0.46 and the relative viability (LC-2-ad; first compound 0.4 µM) was 0.462. It also gave a relative viability (LC-2-ad; first compound 1.265 µM) of 0.351, a relative viability (LCLC-97TM1; first compound 0.04 µM) of 0.228 and a relative viability (LCLC-97TM1; first compound 0.1265 µM) of 0.183. The relative viability (LCLC-97TM1; first compound 0.4 µM) was 0.192, the relative viability (LCLC-97TM1; first compound 1.265 µM) was 0.17 and the relative viability (NCI-H1650; first compound 0.04 µM) was 0.585. For the same compound, the relative viability (NCI-H1650; first compound 0.1265 µM) was 0.585, the relative viability (NCI-H1650; first compound 0.4 µM) was 0.556 and the relative viability (NCI-H1650; first compound 1.265 µM) was 0.381. It also gave a relative viability (NCI-H1651; first compound 0.04 µM) of 0.557, a relative viability (NCI-H1651; first compound 0.1265 µM) of 0.641 and a relative viability (NCI-H1651; first compound 0.4 µM) of 0.451. The relative viability (NCI-H1651; first compound 1.265 µM) was 0.455, the relative viability (NCI-H1792; first compound 0.04 µM) was 0.287 and the relative viability (NCI-H1792; first compound 0.1265 µM) was 0.311. It also gave a relative viability (NCI-H1792; first compound 0.4 µM) of 0.329, a relative viability (NCI-H1792; first compound 1.265 µM) of 0.27 and a relative viability (NCI-H1915; first compound 0.04 µM) of 0.992. It also gave a relative viability (NCI-H1915; first compound 0.1265 µM) of 0.876, a relative viability (NCI-H1915; first compound 0.4 µM) of 0.94 and a relative viability (NCI-H1915; first compound 1.265 µM) of 0.803. For the same compound, the relative viability (NCI-H1944; first compound 0.04 µM) was 0.359, the relative viability (NCI-H1944; first compound 0.1265 µM) was 0.338 and the relative viability (NCI-H1944; first compound 0.4 µM) was 0.309. For the same compound, the relative viability (NCI-H1944; first compound 1.265 µM) was 0.35, the relative viability (NCI-H2023; first compound 0.04 µM) was 0.249 and the relative viability (NCI-H2023; first compound 0.1265 µM) was 0.302. It also gave a relative viability (NCI-H2023; first compound 0.4 µM) of 0.228, a relative viability (NCI-H2023; first compound 1.265 µM) of 0.224 and a relative viability (NCI-H2087; first compound 0.04 µM) of 0.963. The relative viability (NCI-H2087; first compound 0.1265 µM) was 1.09, the relative viability (NCI-H2087; first compound 0.4 µM) was 0.758 and the relative viability (NCI-H2087; first compound 1.265 µM) was 0.712. The relative viability (NCI-H441; first compound 0.04 µM) was 0.489, the relative viability (NCI-H441; first compound 0.1265 µM) was 0.517 and the relative viability (NCI-H441; first compound 0.4 µM) was 0.469. It also gave a relative viability (NCI-H441; first compound 1.265 µM) of 0.338, a relative viability (NCI-H460; first compound 0.04 µM) of 0.409 and a relative viability (NCI-H460; first compound 0.1265 µM) of 0.574. The relative viability (NCI-H460; first compound 0.4 µM) was 0.38, the relative viability (NCI-H460; first compound 1.265 µM) was 0.365 and the relative viability (NCI-H520; first compound 0.04 µM) was 0.288. It also gave a relative viability (NCI-H520; first compound 0.1265 µM) of 0.268, a relative viability (NCI-H520; first compound 0.4 µM) of 0.299 and a relative viability (NCI-H520; first compound 1.265 µM) of 0.262. It also gave a relative viability (NCI-H596; first compound 0.04 µM) of 0.353, a relative viability (NCI-H596; first compound 0.1265 µM) of 0.399 and a relative viability (NCI-H596; first compound 0.4 µM) of 0.353. It also gave a relative viability (NCI-H596; first compound 1.265 µM) of 0.41, a relative viability (NCI-H650; first compound 0.04 µM) of 0.993 and a relative viability (NCI-H650; first compound 0.1265 µM) of 0.889. For the same compound, the relative viability (NCI-H650; first compound 0.4 µM) was 0.701, the relative viability (NCI-H650; first compound 1.265 µM) was 0.681 and the relative viability (NCI-H661; first compound 0.1265 µM) was 0.464. For the same compound, the relative viability (NCI-H661; first compound 0.4 µM) was 0.508, the relative viability (NCI-H661; first compound 1.265 µM) was 0.424 and the relative viability (NCI-H727; first compound 0.04 µM) was 0.363. The relative viability (NCI-H727; first compound 0.1265 µM) was 0.403, the relative viability (NCI-H727; first compound 0.4 µM) was 0.654 and the relative viability (NCI-H727; first compound 1.265 µM) was 0.354. It also gave a relative viability (PC-3 [JPC-3]; first compound 0.04 µM) of 0.784, a relative viability (PC-3 [JPC-3]; first compound 0.1265 µM) of 0.799 and a relative viability (PC-3 [JPC-3]; first compound 0.4 µM) of 0.757. It also gave a relative viability (PC-3 [JPC-3]; first compound 1.265 µM) of 0.768.
